Results: patent publication US5962415A, “Compositions comprising a peptide inhibitor of nuclear protein translocation and an immunosuppressant and methods of use thereof” (Bristol-Myers Squibb Co., priority 1998, dated 1999)

What was measured:
[1] = test system: 70Z/3 murine leukemia pre-B cells; assay: LPS-stimulated surface antigen expression (κ Ig light chain, IL-2 receptor, CD45) in 70Z/3 cells; assay type: cell-based
Procedure: (§1) Expression of κ Ig, CD45, CD40, and the interleukin-2 receptor was assayed using standard enzyme-linked immunosorbent assays ("ELISAs") (see, Coligan et al. (eds.) (1991) Current Protocols in Immunology, Wiley & Sons, p. 2.10 or by FACS staining to measure cell-surface markers as described in Raff (1970) Immunology 19:637). Antibodies form cell surface markers were obtained from Pharmingen Co.
The effect of the SV40MEM polypeptide was compared with two additional polypeptides, […] (SEQ ID NO:2) (the "HIV-1MEM" polypeptide), which is composed of the membrane translocation domain of FGF flanked by the NLS from the HIV-1 matrix protein and […] (SEQ ID NO:3) (the "C-MYCMEM" polypeptide), which contains the NLS from the human c-myc oncoprotein (Chelsky et al. (1989), supra, and Dang et al. (1988), supra) using murine 70Z/3 pre-B cells.
Murine 70Z/3 cells (ATCC TlD-158) are a model cell line for analyzing the effects of compounds on B-cell differentiation. In response to S. typhosa LPS (Difco) or γ-interferon, these cells differentiate from surface κ immunoglobulin negative to κ Ig positive.
[…] of: (1) a peptide containing only the FGF signal sequence AAVALLPAVLLALLAP (SEQ ID NO:4) (the "MEM" peptide); (2) a polypeptide having the FGF signal sequence and the NLS of NF-κB p50 on the carboxy terminus of the signal sequence, namely, the NF-κBMEM polypeptide; (3) the SV40MEM polypeptide comprised of L-amino acids; or (4) the SV40MEM polypeptide comprised of D-amino acids. The cells were then incubated with LPS as described in Example 2 and assayed for expression of κ light chain expression.

[2] = test system: BALB/c mice immunized with sheep red blood cells; assay: Murine sheep red blood cell assay (anti-SRBC antibody response); assay type: in vivo
Procedure: Female BALB/c mice (6-8 weeks of age) were housed in groups of 5 in Thorne units with ad libitum access to food and water. Mice were immunized on day 0 by intravenous (IV) injection of 1×10^8 sheep red blood cells ("SRBCs"). The mice were then divided into groups of five and control solutions or inhibitory peptides were administered at various doses, either by IV injection or orally ("PO") by gavage with a 24-gauge feeding tube and routes.
The SV40MEM polypeptide was administered either intravenously (IV) or orally (PO) with the following schedule: IV administration of 5 mg/kg on days 0, 1, 2, and 3; PO administration of 1 mg/kg on days 0, 1, 2, 3, and 4. After 14 days, the mice were bled from the orbital sinus and the level of anti-SRBC antibodies were measured in the serum by ELISA. Briefly, Immulon 2 plates (Dynatech) were coated with SRBC membrane antigen (Anal. Biochem. 82:362-371 (1978)) at 5 μg/ml in 0.05 M carbonate/bicarbonate buffer (pH 9.6) and incubated overnight at 2-8° C. Plates were blocked for 1-hr at room temperature with Specimen Diluent Concentrate (Genetic Systems, Redmond, Wash.) diluted 1:10 with distilled water. The plates were washed in phosphate-buffered saline and 0.05% Tween-20 ("PBS/Tween"). Serum samples were diluted in Specimen Diluent and incubated for 1 hr at room temperature. After washing the plates in PBS/Tween, goat anti-mouse IgG1-horse radish peroxidase-conjugated ("IgG1-HRP") antibody (Southern Biotechnology, Birmingham Ala.) was added at 1:5000 dilution and incubated for 1 hr at room temperature. Plates were washed and conjugate binding was detected using 3,3',5,5'-tetramethylbenzidine ("TMB") (Genetic Systems) as the substrate. TMB was added and incubated for 15 min at room temperature. The reaction was stopped by the addition of 3 N H2 SO4. Absorbance at […] was recorded from duplicate samples using a microtiter plate reader (Bio Tek Instruments).

[3] = test system: IκB; assay: IκB degradation in LPS-activated 70Z/3 cells (Western analysis); assay type: cell-based, murine; settings: 2 μM, LPS 100 ng/ml for 0-120 min
Procedure: IκB is an inhibitor of NF-κB nuclear translocation. When cells are activated by the appropriate proinflammatory stimulus, e.g., cytokines or LPS, IκB is degraded. […] This experiment was done to explore the effect of the SV40MEM polypeptide on IKB degradation in murine 70Z/3 cells.
Murine 70Z/3 cells (5×10^7 cells) were incubated with the SV40MEM polypeptide (2 μM) or PBS. The two groups of cells were subdivided into aliquots and activated with LPS (100 ng/ml) for 0, 15, 30, 60, or 120 min. The cells were lysed in 200 μL lysing buffer (20 mM N-(2-hydroxyethyl)piperazine-N'-(2-ethanesulfonic acid) ("HEPES"), pH 7.2, 20 mM NaCl, 2.5 mM MgCI2, 0.1% nonylphenoxy polyethoxy ethanol ("NP-40")). The lysates were frozen until analyzed for the presence of IκB by Western analysis using an antibody directed to the carboxy terminus of IκB (Santa Cruz Corp., Santa Cruz, Calif.) according to the manufacturer's instructions.

[4] = test system: 70Z/3 murine B-cells; assay: LPS-induced CD40 expression in 70Z/3 cells; assay type: cell-based; settings: 3 hr treatment prior to LPS, FIG. 5
Procedure: as §1
70Z/3 murine B-cells were treated with the SV40MEM polypeptide for 3 hr prior to activation with LPS. After activation with LPS, there was an approximately four-fold increase in CD40 expression above basal levels.

[5] = IV 5 mg/kg days 0-3, serum day 14, FIG. 11A
[6] = PO 1 mg/kg days 0-4, serum day 14, FIG. 11B

“PKKKRKVAAVALLPAVLLALLAPKKKRKVC [SV40MEM, FGF signal peptide hydrophobic region flanked by SV40 large T antigen NLS]” was tested, and the “expression of CD45” value ([1]; LPS-stimulated, FIG. 1A) was “no effect”, the “expression of the interleukin-2 receptor” value ([1]; LPS-stimulated, FIG. 1A) was “no effect” and the “inhibition of κ light chain expression” value ([1]; response to S. typhosa LPS, 1-hr pretreatment, FIG. 1A) was 75-80%. The “effect of increasing LPS concentration on the inhibitory effect” value ([1]; κ Ig light chain production, FIG. 1C) was “can be overcome by increasing the concentration of LPS”, the “specific anti-SRBC response” value [2, 5] was “inhibited” and the “total IgG levels” value [2, 5] was “no effect”. For the same sequence, the “specific anti-SRBC response” value [2, 6] was “inhibited”, the “total IgG levels” value [2, 6] was “no effect” and the “degradation of IκB” value [3] was “no apparent degradation of IκB”. For the same sequence, the “LPS-induced up-regulation of CD40” value [4] was “inhibited this up-regulation of CD40”.
